Experiments:
FLT3(WT) = FLT3(WT) (Homo sapiens, UniProt P36888); test: Inhibition of FLT3, kinase IC50; type: biochemical
Protocol: (§1) RBC HotSpot Kinase Assay Protocol:
(§2) Reagents used: Base Reaction buffer; 20 mM Hepes (pH 7.5), 10 mM MgCl2, 1 mM EGTA, 0.02% Brij35, 0.02 mg/ml BSA, 0.1 mM Na3VO4, 2 mM DTT, 1% DMSO. Required cofactors are added individually to each kinase reaction.
(§3) Compound 7 was dissolved in 100% DMSO to a specified concentration. The serial dilution was conducted by epMotion 5070 in DMSO. The substrate was freshly prepared in Reaction Buffer and any required cofactors to the substrate solution were added. The kinase was added to the solution and gently mixed. Compound 7 was added in 100% DMSO into the kinase reaction mixture by Acoustic technology (Echo550; nanoliter range), and incubated for 20 min at room temperature. ^33P-ATP (Specific activity 10 μCi/μl) was added into the reaction mixture to initiate the reaction, which was incubated for 2 hours, whereupon kinase activity was detected by the filter-binding method.

FLT3(ITD) = FLT3(ITD) (Homo sapiens, UniProt P36888); test: Inhibition of FLT3 mutants, kinase IC50; type: biochemical; parameters: IC50; other: FLT3(ITD)
Protocol: as §1, §2, §3

MV4-11 = test: Cytotoxicity in high serum conditions (MTS); type: cell-based, human; conditions: MV4-11, 72 hours, 10% vs 30%, 50%, 80% FBS
Protocol: Compound 7 was tested in a dose-dependent manner at different serum concentrations. […] In this experiment, MV4-11 (n=6) and EOL-1(n=3˜6) cells were treated with or without Compound 7 for 72 hours in medium containing normal (10%) or high serum (30%, 50%, 80%) FBS with an MTS assay serving as an end point.

[1] = system: Ba/F3-ITD + D835H (FLT3-ITD + D835H); test: Antiproliferative activity (Table 6); type: cell-based, Murin; conditions: 72 h
[2] = system: Aurora kinase in MV4-11 cells; test: Cell signaling Western blot; type: cell-based, human; conditions: FIG. 24
Protocol: Immunoblot assays: Cells were treated with Compound 7 at various concentrations and collected for cell lysates. The total and phosphorylated levels of the indicated proteins were determined by Western Blot.

Ba/F3-FLT3 (FLT3-WT) = test: Antiproliferative activity (Table 6); type: cell-based, Murin; conditions: 72 h
Mino cells = test: Polyploidy in B-cell lines (Edu and PI staining, FACS); type: cell-based, human; conditions: 0.1 and 1.0 nM
Protocol: Further mechanistic studies were undertaken to fully elucidate Compound 7's potent cytotoxicity. B-cell lines were treated with vehicle or Compound 7 for 24-72 hours and the increase in DNA content or polyploidy phenotype was assessed using Edu and PI staining followed by FACS analysis using the BD Accuri C6 flow cytometer.
Mino and Ramos cell lines were treated with increasing concentrations of.

BTK WT = BTK WT (Homo sapiens, UniProt Q06187); test: Comparative potency against BTK (Table 8); type: biochemical; conditions: Table 8, wild-type BTK
MV4-11 cells = test: Apoptosis of MV4-11 cells (Annexin V, Western blot); type: cell-based, human
Protocol: The data presented in FIGS. 7A-7C, FIGS. 8A-8B, and FIGS. 17A-17J were generated using well-known protocols for measuring apoptosis, which are readily apparent to a skilled artisan. Without being bound by any theory, an overview of the procedure can be found in, for example, Rieger et al., Modified Annexin V/Propidium Iodide Apoptosis Assay For Accurate Assessment of Cell Death, J VI. Exp. 2011; (50): 2597.
IC50s and EC50s: Certain cell viability studies described herein were assessed using the Tryptan blue dye exclusion method or the MTS assay. Certain apoptosis studies and related studies described herein were determined via FACS by annexin V positivity.

NOMO-1 cells = test: Cell-cycle dysregulation (flow cytometry); type: cell-based; conditions: dose-dependent
Protocol: (§4) Cell-cycle analysis: Cells were treated with vehicle, DMSO or Compound 7 and were stained with PI and EdU, and then analyzed by flow cytometry to determine the phases of cell cycle.

KG-1 cells = test: Cell-cycle dysregulation (flow cytometry); type: cell-based; conditions: dose-dependent
Protocol: as §4

[3] = system: isogenic BA/F3 cells with FLT3 mutations; test: Cell-cycle dysregulation (flow cytometry); type: cell-based; conditions: dose-dependent
Protocol: as §4

FLT3(R834Q) = biological target: T1, FLT3(R834Q) (Homo sapiens, UniProt P36888, R834Q); test: Binding constant (Kd), competition binding with qPCR readout
T1 construct: made in house; host or cells: E. coli BL21-derived host (T7 phage) or HEK-293
Protocol: Measurements of said kinase activity are referred to as binding constants or Kd values. The protocol for obtaining these values is hereby described. For most assays, kinase-tagged T7 phage strains were prepared in an E. coli host derived from the BL21 strain. E. coli were grown to log-phase and infected with T7 phage and incubated with shaking at 32° C. until lysis. The lysates were centrifuged and filtered to remove cell debris. The remaining kinases were produced in HEK-293 cells and subsequently tagged with DNA for qPCR detection. […] The liganded beads were blocked with excess biotin and washed with blocking buffer (SeaBlock (Pierce), 1% BSA, 0.05% Tween 20, 1 mM DTT) to remove unbound ligand and to reduce nonspecific binding. […] Test compounds were prepared as 111× stocks in 100% DMSO. Kds were determined using an 11-point 3-fold compound dilution series with three DMSO control points. […] The compounds were then diluted directly into the assays such that the final concentration of DMSO was 0.9%. All reactions performed in polypropylene 384-well plate. Each was a final volume of 0.02 ml. […] The kinase concentration in the eluates was measured by qPCR.

[4] = system: BCR signaling in Ramos cells; test: BCR signaling in IgM-stimulated Ramos cells; type: cell-based; conditions: 1 or 6 hours, then 12 μg/mL IgM for 3 min
Protocol: In this experiment, Ramos cells were treated with or without Compound 7 or Ibrutinin at the indicated concentration for 1 (6 replicates) or 6 (3 replicates) hours, then stimulated with 12 μg/mL IgM for 3 min.

FLT3(N841I) = biological target: T2, FLT3(N841I) (Homo sapiens, UniProt P36888, N841I); test: Binding constant (Kd), competition binding with qPCR readout
T2 construct: made in house; host or cells: E. coli BL21-derived host (T7 phage) or HEK-293

Ba/F3-D835G (FLT3-D835G) = test: Antiproliferative activity (Table 6); type: cell-based, Murin; conditions: 72 h
[5] = system: Ba/F3-ITD + 842 (ITD + Y842C); test: Antiproliferative activity (Table 6); type: cell-based, Murin; conditions: 72 h
FLT3(D835H) = biological target: T3, FLT3(D835H) (Homo sapiens, UniProt P36888, D835H); test: Binding constant (Kd), kinase-tagged phage / affinity bead competition binding with qPCR readout
T3 construct: made in house; host or cells: E. coli BL21-derived host (T7 phage) or HEK-293

Sequence of BTK WT (Q06187 whole entry): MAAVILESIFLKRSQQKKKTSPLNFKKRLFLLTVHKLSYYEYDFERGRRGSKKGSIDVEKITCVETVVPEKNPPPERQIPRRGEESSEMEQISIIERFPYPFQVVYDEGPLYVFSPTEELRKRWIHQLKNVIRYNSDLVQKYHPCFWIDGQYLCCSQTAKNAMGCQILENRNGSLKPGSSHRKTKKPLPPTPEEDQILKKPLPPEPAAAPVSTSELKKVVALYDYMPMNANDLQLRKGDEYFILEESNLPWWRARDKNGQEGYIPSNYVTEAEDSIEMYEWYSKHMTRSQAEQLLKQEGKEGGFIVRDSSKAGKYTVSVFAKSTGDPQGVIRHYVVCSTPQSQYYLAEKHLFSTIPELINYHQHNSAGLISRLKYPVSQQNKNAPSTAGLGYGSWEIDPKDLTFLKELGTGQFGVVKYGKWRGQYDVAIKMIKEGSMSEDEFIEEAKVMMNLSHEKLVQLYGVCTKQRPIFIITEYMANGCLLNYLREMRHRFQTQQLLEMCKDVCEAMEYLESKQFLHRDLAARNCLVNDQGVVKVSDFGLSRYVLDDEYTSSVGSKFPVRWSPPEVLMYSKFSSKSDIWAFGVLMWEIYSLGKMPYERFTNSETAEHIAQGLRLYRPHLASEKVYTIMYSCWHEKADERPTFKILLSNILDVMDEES

## Cc1cnc(-c2ccc(-c3ccc(NC(=O)Nc4c(F)cc(F)cc4F)cc3F)c3c2C(=O)NC3)[nH]1 [Compound 7, 1-{3-fluoro-4-[7-(5-methyl-1H-imidazol-2-yl)-1-oxo-2,3-dihydro-1H-isoindol-4-yl]-phenyl}-3-(2,4,6-trifluorophenyl)urea]
FLT3(WT)
  IC50: 8.75 nM
FLT3(ITD)
  IC50: 0.817 nM
MV4-11
  Activity at high serum concentration: retains high activity at high serum concentration
[1]
  IC50: 6.74 nM
[2]
  Aurora kinase activity and signaling (Western blot): inhibits Aurora kinase activity and signaling
Ba/F3-FLT3 (FLT3-WT)
  IC50: 9.49 nM
Mino cells
  Polyploidy (>4n) followed by apoptosis: effectively induced polyploidy (>4n) followed by apoptosis
BTK WT
  IC50: 5 nM
MV4-11 cells; MV4-11 cells, 1, 3, 6, 24 hour
  Time dependency of apoptosis: induces apoptosis in a time dependent manner
MV4-11 cells; MV411 cells, 24 hours, various concentrations
  Apoptosis induction: induces apoptosis
NOMO-1 cells
  Cell-cycle dysregulation: induce cell-cycle dysregulation
KG-1 cells
  Cell-cycle dysregulation: induce cell-cycle dysregulation
[3]
  Cell-cycle dysregulation: induce cell-cycle dysregulation
FLT3(R834Q)
  Kd: 6.4 nM
[4]
  BCR signaling: affects the BCR signaling
FLT3(N841I)
  Kd: 0.76 nM
Ba/F3-D835G (FLT3-D835G)
  IC50: 0.12 nM
[5]
  IC50: 0.73 nM
FLT3(D835H)
  Kd: 2.2 nM

From US20180344702A1, “METHODS FOR TREATING PATIENTS WITH HEMATOLOGIC MALIGNANCIES” (Aptose Biosciences, Inc., priority 2017, published 2018)
